The supplement of paper PMC10307832

Legend:
Assay in all cases: relative viability (nuclei count vs DMSO), 5 days (fraction); higher = more cells survive
[1] = compound: O=C(c1cc(Cc2n[nH]c(=O)c3ccccc23)ccc1F)N1CCN(C(=O)C2CC2)CC1 [Olaparib] + CC(=O)c1c(C)c2cnc(Nc3ccc(N4CCNCC4)cn3)nc2n(C2CCCC2)c1=O [Palbociclib] (partner 0.5 µM)
How it was run: (§1)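 Medians of duplicate plates are given as relative viability. That measure is the nuclei count in treated wells divided by the count in vehicle wells. Counts were taken on 4× images of lung cancer cell lines in 1536-well plates, 5 days after pin-tool dosing the day after seeding with one drug alone or a fixed anchor-drug dose plus five library-drug doses (not always all listed) in √10 steps.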

[2] = compound: CC(C)C[C@H](NC(=O)[C@H](CCc1ccccc1)NC(=O)CN1CCOCC1)C(=O)N[C@@H](Cc1ccccc1)C(=O)N[C@@H](CC(C)C)C(=O)[C@@]1(C)CO1 [Carfilzomib] + CS(=O)(=O)CCNCc1ccc(-c2ccc3ncnc(Nc4ccc(OCc5cccc(F)c5)c(Cl)c4)c3c2)o1 [Lapatinib] (partner 2 µM)
How it was run: as §1

[3] = compound: O=C(c1cc(Cc2n[nH]c(=O)c3ccccc23)ccc1F)N1CCN(C(=O)C2CC2)CC1 [Olaparib] + N=C(N)NC(=N)NCCc1ccccc1 [Phenformin] (partner 250 µM)
How it was run: as §1

[4] = compound: C[C@@H](Oc1cc(-c2cnn(C3CCNCC3)c2)cnc1N)c1c(Cl)ccc(F)c1Cl [Crizotinib] + O=C(c1cc(Cc2n[nH]c(=O)c3ccccc23)ccc1F)N1CCN(C(=O)C2CC2)CC1 [Olaparib] (partner 8 µM)
How it was run: as §1

Cell Line	relative viability ([1]; first compound 0.08 µM)	relative viability ([1]; first compound 0.253 µM)	relative viability ([1]; first compound 2.53 µM)	relative viability ([1]; first compound 8 µM)	relative viability ([2]; first compound 0.001 µM)	relative viability ([2]; first compound 0.003162 µM)	relative viability ([2]; first compound 0.01 µM)	relative viability ([2]; first compound 0.03162 µM)	relative viability ([2]; first compound 0.1 µM)	relative viability ([3]; first compound 0.08 µM)	relative viability ([3]; first compound 0.253 µM)	relative viability ([3]; first compound 2.53 µM)	relative viability ([3]; first compound 8 µM)	relative viability ([4]; first compound 0.01 µM)	relative viability ([4]; first compound 0.03162 µM)	relative viability ([4]; first compound 0.1 µM)	relative viability ([4]; first compound 0.3162 µM)	relative viability ([4]; first compound 1 µM)
LCLC-97TM1	0.24	0.226	0.206	0.166	0.73	1.58	0.957	0.282	0.142	0.439	0.414	0.428	0.429	0.308	0.32	0.353	0.384	0.428
LCLC-103H	0.524	0.455	0.513	0.494						0.406	0.309	0.36	0.306	0.824	0.766	0.794	0.816	0.749
NCI-H441	0.268	0.257	0.234	0.243						0.824	0.873	0.951	0.706	0.595	0.444	0.583	0.517	0.587
NCI-H522	1.14	0.859	0.87	0.889						0.665	0.722	0.582	0.562	0.658	0.585	0.736	0.747	0.604
NCI-H596					0.965	1.03	1.01	0.805	0.207	0.76	0.732	0.653	0.66	0.698	0.675	0.695	0.642	0.671
NCI-H1299					0.98	1.01	0.982	0.681	0.147					0.95	0.95	0.92	0.947	0.975
NCI-H1563					0.926	1.1	0.927	0.771	0.506	0.677	0.657	0.681	0.734					
NCI-H1623										0.582	0.619	0.497	0.474					
NCI-H1648	0.236	0.305		0.246											0.981	0.861	1.27	0.77
NCI-H1703					1.02	1.19	0.207	0.149	0.173					0.389	0.757	0.528	0.414	0.463
NCI-H2342	0.532	0.503	0.471	0.474						0.577	0.503	0.544	0.598	0.427	0.406	0.429	0.418	0.435
SW 900	0.606	0.492	0.595	0.476						0.614	0.525	0.558	0.555	0.792	0.814	0.831	1.06	0.863
